Data: patent publication US20170258786A1, “RBP4 ANTAGONISTS FOR THE TREATMENT OF AGE-RELATED MACULAR DEGENERATION AND STARGARDT DISEASE” (The Trustees of Columbia University in the City of New York, priority 2013, published 2017)

What was measured:
[1] = Signs of toxicity during 6 week chronic dosing of Abca4-/- mice; assay type: in vivo; settings: 6 week-long chronic dosing, 30 mg/kg
Experimental: (§1) Ten week-old Abca4 null mutant mice (129/SV×C57BL/6J) bred as previously described were used in the study. Abca4−/− (knockout) and Abca4+/+ (wild-type) mice were raised under 12 h on-off cyclic lighting with an in-cage illuminance of 30-50 lux. For long-term oral dosing A1120 was formulated into Purina 5035 rodent chow at Research Diets, Inc. (New Brunswick, N.J.) to ensure consistent 30 mg/kg daily oral dosing. Animals were administered the A1120-containing chow for 6 weeks.
Administration of A1120 reduces the production of A2E, A2-DHP-PE, and atRAL di-PE in A1120-treated Abca4−/− mice in comparison to the vehicle-treated Abca4−/− animals by approximately 50%.

[2] = tested on: lipofuscin bisretinoids (A2E, A2-DHP-PE, atRAL di-PE); experiment: Lipofuscin bisretinoid levels in eyecups of Abca4-/- mice by HPLC; assay type: in vivo, mouse; settings: Example 3, treated mice, 30 mg/kg oral
Excerpt: The Abca4−/− mouse model manifests accelerated accumulation of lipofuscin in the RPE and is considered a pre-clinical efficacy model for a drug reducing lipofuscin accumulation. […] There was approximately a 70% reduction in the serum RBP4 level in treated animals (FIG. 11). Additionally, it was discovered that that the levels of A2E/isoA2E and other bisretinoids were reduced by approximately 50% in treated mice (FIG. 12).
Abca4/Abcr null mutant mice (albino) homozygous for Rpe65-Leu450 are bred genotyped and housed. […] An Alliance system (Waters, Corp, Milford, Mass.) equipped with 2695 Separation Module, 2996 Photodiode Array Detector, a 2475 Multi λ Fluorescence Detector and operating with Empower® software is used for HPLC analysis. […] HPLC quantification is carried out using the Empower® software to determine peak areas. […] Molar quantity per murine eye is determined using calibration curves constructed from known concentrations of purified external standards and by normalizing to the ratio of the HPLC injection volume (10 μL) versus total extract volume. […]
Following euthanasia, posterior eye cups were pooled and homogenized in PBS using a tissue grinder. […] Levels of bisretinoid were determined by reference to external standards of HPLC-purified compound.

insulin sensitivity = settings: reference 12; cited from earlier work
ERG b-wave = ERG b-wave after photobleaching; settings: in vivo
RBP4-TTR interaction = target: T1, RBP4-TTR interaction (Homo sapiens, UniProt P02753); experiment: TR-FRET/HTRF assay for antagonists of retinol-induced RBP4-TTR interaction (Example 2, agonist and antagonist mode); assay type: biochemical; settings: agonist mode, dose titration without retinol
T1 construct: host or cells: E. coli
Excerpt: TR-FRET (Time-Resolved Fluorescence Resonance Energy Transfer) is an assay format that can be used in characterization of compounds affecting protein-protein interactions (31-33). […] In the presence of retinol, RBP4-TTR interaction induces FRET that can be registered as increased ratio of […] fluorescence signals. Binding of a desired RBP4 antagonist displaces retinol and induces hindrance for RBP4-TTR interaction resulting in the decreased FRET signal (FIG. 7).
The assay was developed using E. coli-expressed MBP-tagged RBP4 and commercially available TTR labeled directly with Eu3+ cryptate. In addition to MBP-RBP4 and Eu3+ (K)-TTR, a detector reagent anti-MBP-d2 was present in the mix. The assay was first optimized in the agonist mode; sensitivity and dynamic range of the assay was […] in respect to RBP4, TTR and detection reagent concentrations.

serum RBP4 = target: T2, serum RBP4 (Mus musculus, UniProt Q00724); experiment: Serum RBP4 measured by ELISA in Abca4-/- mice; assay type: in vivo
T2 construct: There was approximately a 70% reduction in the serum RBP4 level in treated animals; from tissue; host or cells: mouse serum (Abca4-/- and wild-type, 129/SV x C57BL/6J)
Experimental: The Abca4−/− mouse model manifests accelerated accumulation of lipofuscin in the RPE and is considered a pre-clinical efficacy model for a drug reducing lipofuscin accumulation.
as §1
Blood samples were collected from a tail vein at days 0, 21 and 42 of the A1120 dosing. Whole blood was drawn into a centrifuge tube and was let clot at room temperature for 30 min followed by centrifugation at 2,000×g for 15 minutes at +4′C to collect serum. Serum RBP4 was measured using the RBP4 (mouse/rat) dual ELISA kit (Enzo Life Sciences) following the manufacturer's instructions.

A2E production = settings: animal model of excessive bisretinoid accumulation, reference 11; cited from earlier work
[3] = Abca4-/- mice, 30 mg/kg daily oral in chow

| SMILES | Signs of compound toxicity such as weight loss or reduction in food consumption [1] | Levels of A2-DHP-PE and atRAL di-PE [2] | Reduction of levels of A2E/isoA2E and other bisretinoids [2] | Insulin sensitivity in mouse diabetes models (insulin sensitivity) | Effect on ERG b-wave after photobleaching (ERG b-wave) | Induction of RBP4-TTR interaction (RBP4-TTR interaction) | Serum RBP4 reduction at Week 3 (Day 21) compared with Day 0 (serum RBP4; [3]) [%] | Serum RBP4 reduction at Week 6 (Day 42) compared with Day 0 (serum RBP4; [3]) [%] | Reduction in serum RBP4 level (serum RBP4; orally dosed for 3 weeks at 30 mg/kg, treated animals) [%] | A2E production in Abca4-/- mice (A2E production) |
| --- | --- | --- | --- | --- | --- | --- | --- | --- | --- | --- |
| O=C(O)c1ccccc1NC(=O)N1CCC(c2ccccc2C(F)(F)F)CC1 [Compound 1, 2(4-(2-(trifluoromethyl)phenyl)piperidine-1-carboxamido)benzoic acid] | did not note any obvious signs of compound toxicity | reduced | approximately 50% | did not improve insulin sensitivity | does not reduce ERG b-wave | did not induce RBP4-TTR interaction | 64 | 75 | ~70 | – |
| CC1=C(/C=C/C(C)=C/C=C/C(C)=C/C(=O)Nc2ccc(O)cc2)C(C)(C)CCC1 [fenretinide, N-(4-hydroxy-phenyl)retinamide] | – | – | – | – | – | did not induce RBP4-TTR interaction | – | – | – | reduced A2E production |
